The term IC50 denotes the point on the concentration scale where inhibition reaches its midpoint.

Results on 32 compounds are retold here after US20250066335A1, “POLYSUBSTITUTED 4-HYDROXYPYRIDINE AND 4-HYDROXYQUINOLINE DERIVATIVES AS GPR84 ANTAGONISTS” (UNIVERSITY OF COPENHAGEN, priority 2021, published 2025).

The target of the assay is T1, GPR84 (Homo sapiens, UniProt Q9NQS5).
T1 construct: expressed in transfected cells; host or cells: HTLA cells (HEK293 line stably expressing a tTA-dependent luciferase reporter and a β-arrestin2-TEV fusion gene), transiently transfected with PEI
T1 sequence (Q9NQS5 whole entry, the tested form may be a part): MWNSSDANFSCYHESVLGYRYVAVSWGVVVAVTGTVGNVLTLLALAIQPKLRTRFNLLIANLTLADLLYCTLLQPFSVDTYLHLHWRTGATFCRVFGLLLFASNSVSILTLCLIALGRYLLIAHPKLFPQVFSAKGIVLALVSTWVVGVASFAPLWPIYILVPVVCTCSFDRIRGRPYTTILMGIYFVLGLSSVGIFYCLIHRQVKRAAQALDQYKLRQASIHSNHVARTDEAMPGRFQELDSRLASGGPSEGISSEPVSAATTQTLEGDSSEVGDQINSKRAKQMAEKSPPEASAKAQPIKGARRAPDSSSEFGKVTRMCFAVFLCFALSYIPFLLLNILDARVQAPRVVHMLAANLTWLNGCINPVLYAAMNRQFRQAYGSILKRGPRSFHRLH
The assay is described as follows: PRESTO-Tango β-arrestin2 recruitment assay, GPR84 antagonistic activity. The note with it: antagonist activity in the Presto-TANGO assay; inhibition of the response from the agonist ZQ-16 (100 nM); HTLA cells. It counts as cell-based. On the procedure:
PRESTO-Tango β-arrestin recruitment assay (W.K. Kroeze et al., 2015). HTLA cells (a HEK293 cell line stably expressing a tTA-dependent luciferase reporter and a β-arrestin2-TEV fusion gene) were maintained in Dulbecco's Modified Eagle's Medium (DMEM) supplemented with 10% Fetal Bovine Serum (dFBS), 100 U/mL penicillin and 100 μg/mL streptomycin, 2 μg/mL puromycin and 100 μg/mL hygromycin B in a humidified atmosphere at 37° C. in 5% CO2. For transfection, cells were plated at 9×10^6 to 10×10^6 cells per 15-cm cell-culture dish (day 1). The following day (day 2), cells were transfected by adding 5 μg DNA and 15 μg polyethylenimine (PEI) diluted in 1 mL Opti-MEM (Reduced Serum Medium supplied by ThermoFisher). On day 3, transfected cells were transferred at 25000 cells per well in 40 μl of medium into poly-l-lysine-coated and rinsed 384-well white, clear-bottomed cell-culture plates (Greiner Bio-One). On day 4, dilutions of the ligands to be tested were prepared in 1% dFBS DMEM and 10 μL were added to each well. On day 5, 20 μl per well of Bright-Glo solution (Promega) diluted 10-fold in assay buffer (Hanks' Balanced Salt Solution [HBSS], 20 mM HEPES, 1 mM CaCl2, 1 mM MgCl2, pH adjusted to 7.4 by 5 M NaOH) was added to each well. After incubation for 20 min at room temperature, luminescence was counted in an Enspire luminescence counter at 384 nm. Results in the form of relative luminescence units (RLU) were exported into Excel spreadsheets, and GraphPad Prism was used for analysis of data. To measure constitutive activity, no ligand was added on day 4.
The GPR84 antagonistic activity of the compounds was determined using the PRESTO-Tango β-arrestin2 recruitment assay (Assay I, see assays above), from which the concentration of each compound required for 50% inhibition (IC50) of the response from the agonist ZQ-16 (100 nM) was determined. The antagonistic activity for each compound is given in Table 1 as the pIC50, which is the negative log of the IC50 value when converted to molar.
A general note: Recruitment of arrestin is a read-out of receptor activation apart from second messengers.
`CCCc1ccc(CCc2nc(OCC3CCCCO3)cc(O)c2Br)cc1` (centres unmarked) [Example 1, 3-bromo-2-(4-propylphenethyl)-6-((tetrahydro-2H-pyran-2-yl)methoxy)pyridin-4-ol] gave an IC50 of 3.02 nM.
`CCCc1ccc(CCc2nc(OCC3CCCCO3)cc(O)c2C)cc1` (centres unmarked) [Example 2, 3-Methyl-2-(4-propylphenethyl)-6-((tetrahydro-2H-pyran-2-yl)methoxy)pyridin-4-ol] gave an IC50 of 1.32 nM.
The same measure for `CCCc1ccc(CCc2nc(OCC3CCCCO3)cc(O)c2-c2ccccc2)cc1` (centres unmarked) [Example 3, 3-Phenyl-2-(4-propylphenethyl)-6-((tetrahydro-2H-pyran-2-yl)methoxy)pyridin-4-ol]: 85.1 nM; for `CCOc1ccc(CCc2nc(OCC3CCCCO3)cc(O)c2C#N)cc1` (centres unmarked) [Example 4, 2-(4-Ethoxyphenethyl)-4-hydroxy-6-((tetrahydro-2H-pyran-2-yl)methoxy)nicotinonitrile]: 145 nM; for `CCOc1ccc(-c2ccc3c(O)cc(OCC4CCCCO4)nc3c2)cc1` (centres unmarked) [Example 5, 7-(4-Ethoxyphenyl)-2-((tetrahydro-2H-pyran-2-yl)methoxy)quinolin-4-ol]: 724 nM.
The same measure for `CCCc1ccc(CCc2nc(OCC3CCCCO3)cc(O)c2CC)cc1` (centres unmarked) [Example 6, 3-Ethyl-2-(4-propylphenethyl)-6-((tetrahydro-2H-pyran-2-yl)methoxy)pyridin-4-ol]: 2.14 nM; for `CCCc1ccc(CCc2nc(OCC3CCCCO3)cc(O)c2CCC)cc1` (centres unmarked) [Example 7, 3-Propyl-2-(4-propylphenethyl)-6-((tetrahydro-2H-pyran-2-yl)methoxy)pyridin-4-ol]: 6.61 nM; for `CCCc1ccc(CCc2nc(OCC3CCCCO3)cc(O)c2C(C)C)cc1` (centres unmarked) [Example 8, 3-Isopropyl-2-(4-propylphenethyl)-6-((tetrahydro-2H-pyran-2-yl)methoxy)pyridin-4-ol]: 81.3 nM.
With `CCCc1ccc(CCc2nc(OCC3CCCCO3)cc(O)c2-c2ccccc2C)cc1` (centres unmarked) [Example 9, 2-(4-Propylphenethyl)-6-((tetrahydro-2H-pyran-2-yl)methoxy)-3-(o-tolyl)pyridin-4-ol] the figure was 389 nM.
The compound `CCCc1ccc(CCc2nc(OCC3CCCCO3)cc(O)c2-c2ccc(C)cc2)cc1` (centres unmarked) [Example 10, 2-(4-Propylphenethyl)-6-((tetrahydro-2H-pyran-2-yl)methoxy)-3-(p-tolyl)pyridin-4-ol] had an IC50 of 66.1 nM.
In turn, `CCCc1ccc(CCc2nc(OCC3CCCCO3)cc(O)c2CCc2ccccc2)cc1` (centres unmarked) [Example 11, 3-Phenethyl-2-(4-propylphenethyl)-6-((tetrahydro-2H-pyran-2-yl)methoxy)pyridin-4-ol] had an IC50 of 178 nM.
The same measure for `CCCc1ccc(CCc2nc(OCC3CCCCO3)cc(O)c2/C=C/C(=O)OCC)cc1` (centres unmarked) [Example 12, Ethyl (E)-3-(4-hydroxy-2-(4-propylphenethyl)-6-((tetrahydro-2H-pyran-2-yl)methoxy)pyridin-3-yl)acrylate]: 21.9 nM; for `CCCc1ccc(CCc2nc(OCC3CCCCO3)cc(O)c2CCC(=O)OCC)cc1` (centres unmarked) [Example 13, Ethyl 3-(4-hydroxy-2-(4-propylphenethyl)-6-((tetrahydro-2H-pyran-2-yl)methoxy)pyridin-3-yl)propanoate]: 13.2 nM.
The same measure for `CCCc1ccc(CCc2nc(OCC3CCCCO3)cc(O)c2CCC(=O)O)cc1` (centres unmarked) [Example 14, Sodium 3-(4-hydroxy-2-(4-propylphenethyl)-6-((tetrahydro-2H-pyran-2-yl)methoxy)pyridin-3-yl)propanoate]: 1.12 nM; for `CCCc1ccc(CCc2nc(OCC3CCCCO3)cc(O)c2CCCO)cc1` (centres unmarked) [Example 15, 3-(3-Hydroxypropyl)-2-(4-propylphenethyl)-6-((tetrahydro-2H-pyran-2-yl)methoxy)pyridin-4-ol]: 1.7 nM.
With `CCCc1ccc(CCc2nc(OCC3CCCCO3)cc(O)c2-c2ccc(CC)cc2)cc1` (centres unmarked) [Example 16, 3-(4-Ethylphenyl)-2-(4-propylphenethyl)-6-((tetrahydro-2H-pyran-2-yl)methoxy)pyridin-4-ol] the figure was 70.8 nM; with `CCCc1ccc(CCc2nc(OCC3CCCCO3)cc(O)c2-c2ccc(O)cc2)cc1` (centres unmarked) [Example 17, 3-(4-Hydroxyphenyl)-2-(4-propylphenethyl)-6-((tetrahydro-2H-pyran-2-yl)methoxy)pyridin-4-ol], 93.3 nM.
The compound `CCCc1ccc(CCc2nc(OCC3CCCCO3)cc(O)c2-c2ccc(OCC(=O)OC)cc2)cc1` (centres unmarked) [Example 18, Methyl 2-(4-(4-hydroxy-2-(4-propylphenethyl)-6-((tetrahydro-2H-pyran-2-yl)methoxy)pyridin-3-yl)phenoxy)acetate] showed an IC50 of 148 nM.
The compound `CCCc1ccc(CCc2nc(OCC3CCCCO3)cc(O)c2-c2ccc(OCC(=O)O)cc2)cc1` (centres unmarked) [Example 19, 2-(4-(4-Hydroxy-2-(4-propylphenethyl)-6-((tetrahydro-2H-pyran-2-yl)methoxy)pyridin-3-yl)phenoxy)acetic acid] had an IC50 of 93.3 nM.
Regarding `CCCc1ccc(CCc2nc(OCC3CCCCO3)cc(O)c2-c2ccc(C(=O)OC)cc2)cc1` (centres unmarked) [Example 20, Methyl 4-(4-hydroxy-2-(4-propylphenethyl)-6-((tetrahydro-2H-pyran-2-yl)methoxy)pyridin-3-yl)benzoate], the IC50 was 145 nM.
With `CCCc1ccc(CCc2nc(OCC3CCCCO3)cc(O)c2-c2ccc(C(=O)O)cc2)cc1` (centres unmarked) [Example 21, 4-(4-Hydroxy-2-(4-propylphenethyl)-6-((tetrahydro-2H-pyran-2-yl)methoxy)pyridin-3-yl)benzoic acid] the figure was 141 nM.
Turning to `CCCc1ccc(CCc2nc(OCC3COCCO3)cc(O)c2C)cc1` (centres unmarked) [Example 22, 6-((1,4-Dioxan-2-yl)methoxy)-3-methyl-2-(4-propylphenethyl)pyridin-4-ol], the IC50 is 3.02 nM.
Consider `CCOc1ccc(CCc2nc(OCC3COCCO3)cc(O)c2C)cc1` (centres unmarked) [Example 23, 6-((1,4-Dioxan-2-yl)methoxy)-2-(4-ethoxyphenethyl)-3-methylpyridin-4-ol], for which the IC50 is 3.31 nM.
`CCOc1ccc(CCc2nc(OC[C@@H]3COCCO3)cc(O)c2C)cc1` [Example 24, (S)-6-((1,4-dioxan-2-yl)methoxy)-2-(4-ethoxyphenethyl)-3-methylpyridin-4-ol]: the IC50 is 1.07 nM.
`CCCc1ccc(CCc2nc(OCC3COCCO3)cc(O)c2CC)cc1` (centres unmarked) [Example 25, 6-((1,4-Dioxan-2-yl)methoxy)-3-ethyl-2-(4-propylphenethyl)pyridin-4-ol]: the IC50 was 0.776 nM.
On to `CCOc1ccc(CCc2nc(OCC3COCCO3)cc(O)c2CC)cc1` (centres unmarked) [Example 26, 6-((1,4-Dioxan-2-yl)methoxy)-2-(4-ethoxyphenethyl)-3-ethylpyridin-4-ol], for which the IC50 is 0.389 nM.
Compound `Cc1c(O)cc(OCC2COCCO2)nc1CCc1ccc(OCCNC(=O)OC(C)(C)C)cc1` (centres unmarked) [Example 27, Tert-butyl (2-(4-(2-(6-((1,4-dioxan-2-yl)methoxy)-4-hydroxy-3-methylpyridin-2-yl)ethyl)phenoxy)ethyl)carbamate] gave an IC50 of 0.282 nM.
The same measure for `CCOC(=O)COc1ccc(CCc2nc(OCC3COCCO3)cc(O)c2C)cc1` (centres unmarked) [Example 28, Ethyl 2-(4-(2-(6-((1,4-dioxan-2-yl)methoxy)-4-hydroxy-3-methylpyridin-2-yl)ethyl)phenoxy)acetate]: 11.2 nM.
With `Cc1c(O)cc(OCC2COCCO2)nc1CCc1ccc(OCCN)cc1` (centres unmarked) [Example 29, 2-(4-(2-(6-((1,4-Dioxan-2-yl)methoxy)-4-hydroxy-3-methylpyridin-2-yl)ethyl)phenoxy)ethan-1-aminium chloride] the figure was 16.2 nM; with `Cc1c(O)cc(OCC2COCCO2)nc1CCc1ccc(OCC(=O)O)cc1` (centres unmarked) [Example 30, 2-(4-(2-(6-((1,4-Dioxan-2-yl)methoxy)-4-hydroxy-3-methylpyridin-2-yl)ethyl)phenoxy)acetic acid], 1290 nM; with `CC(=O)NCCOc1ccc(CCc2nc(OCC3COCCO3)cc(O)c2C)cc1` (centres unmarked) [Example 31, N-(2-(4-(2-(6-((1,4-dioxan-2-yl)methoxy)-4-hydroxy-3-methylpyridin-2-yl)ethyl)phenoxy)ethyl)acetamide], 17.8 nM.
With `CCc1c(O)cc(OCC2COCCO2)nc1CCc1ccc(OCCNC(=O)OC(C)(C)C)cc1` (centres unmarked) [Example 32, tert-Butyl (2-(4-(2-(6-((1,4-dioxan-2-yl)methoxy)-3-ethyl-4-hydroxypyridin-2-yl)ethyl)phenoxy)ethyl)carbamate] the figure was 0.209 nM.
